Laboratory results: paper PMC5249144, “T Cell Subset and Stimulation Strength-Dependent Modulation of T Cell Activation by Kv1.3 Blockers” (PLoS ONE, 2017)
Read-outs that look alike come from different tables or passages of the source.

What was measured:
human CD4 T cell subsets = format: cell-based
Text: (§1) Human PBMC were purified from donor blood by Ficoll-Paque (GE Healthcare) density centrifugation. CD4 or CD8 T cells were purified from human PBMC by negative selection using human CD4 or CD8 T cell isolation kit (Miltenyi Biotec) respectively. Naïve or memory CD4 T cells were isolated from CD4 T cells by negative selection using human naïve or memory CD4 T cell isolation kit (Miltenyi Biotec) respectively. Central and effector memory CD4 T cells were separated from memory CD4 T cells using biotinylated anti-CCR7 (BD Biosciences) and streptavidin coated magnetic beads (Miltenyie Biotec). Cells after treatment with antibodies and magnetic beads were purified with autoMACS (Miltenyi Biotec).
(§2) T cells were cultured in 96-well plates (Thermo Scientific) with 200μl medium/well. […]
(§3) Proliferation of T cells was measured by overnight pulsing with 1μCi/well of ^3H-thymidine (Perkin Elmer). […] Filter plates were soaked with scintillant (Perkin Elmer) and radioactivity was counted using a Topcount (Packard).
In order to further understand the activity profile of Kv1.3 blockers on T cells, we compared the effects of Kv1.3 blockers on primary naïve, central memory and effector memory CD4 T cells. […] Purified T cells were activated with anti-CD3 in the presence of mitomycin C treated PBMC and the effects of Kv1.3 blockers on T cell proliferation were monitored and compared to cyclosporine A and BTP2.

human CD4 T cells [1] = assay: Calcium flux in CD4 T cells, thapsigargin; format: cell-based; details: BTP2 1μM, thapsigargin 1μM, monitored for 10 minutes
Procedure: (§4) T cells were loaded with 3μM each of Fluo4 and Fura red (Molecular Probes, Invitrogen) for 45 minutes in the dark at 37°C in cell loading medium (DMEM medium with 10mM HEPES and 10% fetal calf serum) in the presence of 0.01% pluronic acid (Molecular Probes). Dye-loaded cells were rinsed twice with loading medium, incubated with 10μg/ml mouse anti-CD3 (BD Biosciences) and 2.5μg/ml mouse anti-CD28 (BD Biosciences) for 30 minutes at room temperature, and then rinsed again with loading medium to be ready for calcium flux studies. Cells were acquired with FACS LSRII and cell activation was initiated by addition of goat anti-mouse antibody (Jackson ImmunoResearch) to final 10μg/ml. CD4 T cells were also stimulated with 1μM thapsigargin. Kinetics of calcium flux in activated cells were monitored by reading the calcium dependent Fluo4 emission signals at 530nm compared to non-specific Fura red signals at 685nm. Calcium flux was calculated as ratio of Fluo4 to Fura red emission signals.

human CD4 T cells [2] = assay: Calcium flux in CD4 T cells, anti-CD3/CD28; format: cell-based; details: BTP2 1μM
Procedure: as §4

[3] = test system: thapsigargin stimulated human blood; assay: Thapsigargin stimulated whole blood IL-2 production; format: cell-based; details: whole blood diluted with equal volume IMDM, 20 hours
Procedure: Heparinized human blood was diluted with an equal volume of IMDM medium (Life Technologies) supplemented with 2% normal human A/B serum and plated at 200μl/well in 96-well plates for thapsigargin (Alomone) stimulation. CD4 T cells were plated at 5 x 10^5 cells/well in 96-well plates with 200μl medium/well. Blood or T cell samples were pre-treated with blockers or inhibitors for 30 minutes prior to stimulation with thapsigargin at 10μM or other concentrations as indicated for 20 hours. Cytokines in culture supernatants were measured as described in cytokine detection section.
(§5) Cytokines in supernatants collected from blood or T cell cultures were measured with ELISA or electrochemiluminescent assays. IL-2 was measured by ELISA using the human IL-2 Quantikine Kit (R&D Systems). Other cytokines were detected using multiplex human cytokine electro-chemiluminescent kit (Meso Scale Discovery).

Kv1.3 = details: ref [5], [20]–[23]; cited from earlier work
[4] = test system: human CD4 and CD8 T cells; format: cell-based
Text: as §1, §2, §3, §5

[5] = test system: PBMC from allergic rhinitis patients; format: cell-based, human
Procedure: T cells were cultured in 96-well plates (Thermo Scientific) with 200μl medium/well. Culture medium was RPMI-1640 medium supplemented with 2% human A/B serum (Valley Biomedical Prod & Srv Inc.), 2 mM glutamine, 1mM sodium pyruvate, 10mM HEPES, 1mM MEM nonessential amino acid solution, and 100 U/ml each of penicillin G and streptomycin (all culture reagents from Life Technologies except for human serum). T cells were pre-treated with Kv1.3 blockers and other inhibitors for 30 minutes before stimulation. All assays were conducted with samples in duplicates or triplicates.
For T cell pan-activation with beads coated with anti-CD3 and anti-CD28 (eBioscience), T cells at 2 x 10^5 cells/well in 96-well flat-bottom plates were stimulated overnight with anti-CD3 and anti-CD28 coated beads (Miltenyi Biotec) at 2:1 bead/cell ratio or as indicated. For T cell pan-activation with anti-CD3, T cells at 5 x 10^4 cells/well in 96-well U-bottom plates were stimulated for 2 days with 1ng/ml of anti-CD3 in the presence of mitomycin C treated autologous PBMC at 1:1 T cell/PBMC ratio. […]
as §3

Compound	inhibition of proliferation of T cell subsets, in words (human CD4 T cell subsets; maximal efficacious concentrations, naïve, Tcm, Tem CD4 T cells, anti-CD3/PBMC)	reduction of calcium flux, in words (human CD4 T cells [1])	reduction of calcium flux, in words (human CD4 T cells [2]; anti-CD3/CD28, monitored for 10 minutes)	calcium flux by T cell population, in words (human CD4 T cells [2]; ShK 1nM, activated CD4 T cells, Fig 4C (anti-CD3/CD28 or thapsigargin))	inhibition of IL-2 release from thapsigargin stimulated whole blood, in words [3]	Kv1.3 block, in words (Kv1.3)	block of T cell activation [4] [%]	inhibition of T cell activation, in words [4]	inhibition of proliferation of T cell subsets, in words (human CD4 T cell subsets)	ragweed proliferative response, in words [5]
Cc1nnsc1C(=O)Nc1ccc(-n2nc(C(F)(F)F)cc2C(F)(F)F)cc1 [BTP2]	complete inhibition	significantly reduced the calcium flux levels	significantly reduced the calcium flux levels	reduced calcium flux in all activated T cells	fully efficacious	–	–	–	–	–
CC[C@H](C)[C@@H]1NC(=O)[C@@H]2CSSC[C@@H]3NC(=O)[C@H](CCCCN)NC(=O)CNC(=O)[C@H](CC(N)=O)NC(=O)[C@H](CCSC)NC(=O)[C@H](CSSC[C@H](NC(=O)[C@H](CCCCN)NC(=O)[C@@H](NC(=O)[C@H](CC(=O)O)NC(=O)[C@@H](NC(=O)[C@@H]4CCCN4C(=O)[C@@H](NC(=O)CN)C(C)C)[C@@H](C)O)C(C)C)C(=O)N[C@@H](CCCNC(=N)N)C(=O)NCC(=O)N[C@@H](CO)C(=O)N4CCC[C@H]4C(=O)N[C@@H](CCC(N)=O)C(=O)N2)NC(=O)[C@H](CCCCN)NC(=O)CNC(=O)[C@H](Cc2ccccc2)NC(=O)[C@H](CCCNC(=N)N)NC(=O)[C@H](CCSC)NC(=O)CNC(=O)[C@H](C)NC(=O)[C@H](CC(=O)O)NC(=O)[C@H](CCCCN)NC(=O)[C@H](CSSC[C@@H](C(=O)N[C@H](C(=O)N2CCC[C@H]2C(=O)N[C@@H](CCCCN)C(=O)O)[C@@H](C)O)NC(=O)[C@H](Cc2c[nH]cn2)NC3=O)NC(=O)[C@@H]2CCCN2C(=O)[C@H](CCC(N)=O)NC1=O [OdK2]	–	–	–	–	–	potent blockers of Kv1.3	–	–	–	–
cyclosporine A	–	–	–	–	fully efficacious	–	~100	fully inhibits T cell activation in all stimulation conditions	complete inhibition	reduced the proliferative response to its basal level
